Patent US7176313B2, “Anti acid-fast bacterial agent containing pyridonecarboxylic acids as active ingredient” (Daiichi Pharmaceutical Co., Ltd., priority 2000, dated 2007)
≈ marks a conversion by molar mass, not a printed value.

What was measured:
[1] = test system: Mycobacterium tuberculosis (RFP sensitive); assay: Antibacterial activity (MIC) against Mycobacterium tuberculosis (RFP sensitive); format: cell-based; details: Table 5
M. avium = assay: Antibacterial activity (MIC) against M. avium; format: cell-based, Mycobacterium avium; details: Table 3
Experimental: Antibacterial activity of the compounds of the invention was measured in accordance with the method described in the literature of Antimicrob. […] In the tables, “OFLX” is an abbreviation of “OFLOXAIN”.

M. intracellulare = assay: Antibacterial activity (MIC) against M. intracellulare; format: cell-based, Mycobacterium intracellulare; details: Table 3
Experimental: Antibacterial activity of the compounds of the invention was measured in accordance with the method described in the literature of Antimicrob. Agents and Chemother., 38, 2877 (1994), and the results are shown in Tables 3 to 8 in terms of MIC (μg/ml). In the tables, “OFLX” is an abbreviation of “OFLOXAIN”.

## O=C(O)c1cn(C2CC2)c2c(Cl)c(N3CC4CCCNC4C3)c(F)cc2c1=O (stereo not drawn) [Compd. 1]
[1]; M. tuberculosis H37Rv
  MIC: 0.025 µg/mL (≈ 0.0616 µM)
[1]; M. tuberculosis Kurono
  MIC: 0.013 µg/mL (≈ 0.032 µM)
[1]; M. tuberculosis No. 40
  MIC: 0.025 µg/mL (≈ 0.0616 µM)
[1]; M. tuberculosis No. 41
  MIC: <0.003 µg/mL
[1]; M. tuberculosis No. 43
  MIC: 0.20 µg/mL (≈ 0.493 µM)
[1]; M. tuberculosis No. 68
  MIC: 0.025 µg/mL (≈ 0.0616 µM)
M. avium; M. avium N-357
  MIC: 0.10 µg/mL (≈ 0.246 µM)
M. avium; M. avium N-444
  MIC: 0.20 µg/mL (≈ 0.493 µM)
M. avium; M. avium N-458
  MIC: 0.20 µg/mL (≈ 0.493 µM)
M. avium; M. avium N-472
  MIC: 1.56 µg/mL (≈ 3.84 µM)
M. intracellulare; M. intracellulare N-294
  MIC: 0.39 µg/mL (≈ 0.961 µM)
M. intracellulare; M. intracellulare N-313
  MIC: 0.10 µg/mL (≈ 0.246 µM)
M. intracellulare; M. intracellulare N-338
  MIC: 0.39 µg/mL (≈ 0.961 µM)
M. intracellulare; M. intracellulare N-345
  MIC: 0.39 µg/mL (≈ 0.961 µM)

## O=C(O)c1cn([C@@H]2C[C@@H]2F)c2c(Cl)c(N3CC4CCCNC4C3)c(F)cc2c1=O (stereo partly drawn) [Compd. 2]
[1]; M. tuberculosis H37Rv
  MIC: 0.025 µg/mL (≈ 0.059 µM)
[1]; M. tuberculosis Kurono
  MIC: 0.013 µg/mL (≈ 0.0307 µM)
[1]; M. tuberculosis No. 40
  MIC: 0.025 µg/mL (≈ 0.059 µM)
[1]; M. tuberculosis No. 41
  MIC: 0.006 µg/mL (≈ 0.0142 µM)
[1]; M. tuberculosis No. 43
  MIC: 0.10 µg/mL (≈ 0.236 µM)
[1]; M. tuberculosis No. 68
  MIC: 0.025 µg/mL (≈ 0.059 µM)
M. avium; M. avium N-357
  MIC: 0.20 µg/mL (≈ 0.472 µM)
M. avium; M. avium N-444
  MIC: 0.39 µg/mL (≈ 0.92 µM)
M. avium; M. avium N-458
  MIC: 0.20 µg/mL (≈ 0.472 µM)
M. avium; M. avium N-472
  MIC: 0.78 µg/mL (≈ 1.84 µM)
M. intracellulare; M. intracellulare N-294
  MIC: 0.39 µg/mL (≈ 0.92 µM)
M. intracellulare; M. intracellulare N-313
  MIC: 0.20 µg/mL (≈ 0.472 µM)
M. intracellulare; M. intracellulare N-338
  MIC: 0.39 µg/mL (≈ 0.92 µM)
M. intracellulare; M. intracellulare N-345
  MIC: 0.78 µg/mL (≈ 1.84 µM)

## NC1CN(c2c(F)cc3c(=O)c(C(=O)O)cn(C4CC4)c3c2Cl)CC12CC2 (stereo not drawn) [Compd. 3]
[1]; M. tuberculosis H37Rv
  MIC: 0.10 µg/mL (≈ 0.255 µM)
[1]; M. tuberculosis Kurono
  MIC: 0.05 µg/mL (≈ 0.128 µM)
[1]; M. tuberculosis No. 40
  MIC: 0.10 µg/mL (≈ 0.255 µM)
[1]; M. tuberculosis No. 41
  MIC: 0.006 µg/mL (≈ 0.0153 µM)
[1]; M. tuberculosis No. 43
  MIC: 0.78 µg/mL (≈ 1.99 µM)
[1]; M. tuberculosis No. 68
  MIC: 0.10 µg/mL (≈ 0.255 µM)
M. avium; M. avium N-357
  MIC: 0.39 µg/mL (≈ 0.995 µM)
M. avium; M. avium N-444
  MIC: 1.56 µg/mL (≈ 3.98 µM)
M. avium; M. avium N-458
  MIC: 0.78 µg/mL (≈ 1.99 µM)
M. avium; M. avium N-472
  MIC: 6.25 µg/mL (≈ 16 µM)
M. intracellulare; M. intracellulare N-294
  MIC: 1.56 µg/mL (≈ 3.98 µM)
M. intracellulare; M. intracellulare N-313
  MIC: 0.39 µg/mL (≈ 0.995 µM)
M. intracellulare; M. intracellulare N-338
  MIC: 1.56 µg/mL (≈ 3.98 µM)
M. intracellulare; M. intracellulare N-345
  MIC: 1.56 µg/mL (≈ 3.98 µM)

## NC1CN(c2c(F)cc3c(=O)c(C(=O)O)cn([C@@H]4C[C@@H]4F)c3c2Cl)CC12CC2 (stereo partly drawn) [Compd. 4]
[1]; M. tuberculosis H37Rv
  MIC: 0.025 µg/mL (≈ 0.061 µM)
[1]; M. tuberculosis Kurono
  MIC: 0.013 µg/mL (≈ 0.0317 µM)
[1]; M. tuberculosis No. 40
  MIC: 0.025 µg/mL (≈ 0.061 µM)
[1]; M. tuberculosis No. 41
  MIC: <0.003 µg/mL
[1]; M. tuberculosis No. 43
  MIC: 0.20 µg/mL (≈ 0.488 µM)
[1]; M. tuberculosis No. 68
  MIC: 0.025 µg/mL (≈ 0.061 µM)
M. avium; M. avium N-357
  MIC: 0.20 µg/mL (≈ 0.488 µM)
M. avium; M. avium N-444
  MIC: 0.78 µg/mL (≈ 1.9 µM)
M. avium; M. avium N-458
  MIC: 0.39 µg/mL (≈ 0.952 µM)
M. avium; M. avium N-472
  MIC: 1.56 µg/mL (≈ 3.81 µM)
M. intracellulare; M. intracellulare N-294
  MIC: 1.56 µg/mL (≈ 3.81 µM)
M. intracellulare; M. intracellulare N-313
  MIC: 0.39 µg/mL (≈ 0.952 µM)
M. intracellulare; M. intracellulare N-338
  MIC: 1.56 µg/mL (≈ 3.81 µM)
M. intracellulare; M. intracellulare N-345
  MIC: 3.13 µg/mL (≈ 7.64 µM)

## COc1c(N2CC3CCCNC3C2)c(F)cc2c(=O)c(C(=O)O)cn(C3CC3)c12 (stereo not drawn) [Compd. 5]
[1]; M. tuberculosis H37Rv
  MIC: 0.10 µg/mL (≈ 0.249 µM)
[1]; M. tuberculosis Kurono
  MIC: 0.05 µg/mL (≈ 0.125 µM)
[1]; M. tuberculosis No. 40
  MIC: 0.10 µg/mL (≈ 0.249 µM)
[1]; M. tuberculosis No. 41
  MIC: 0.025 µg/mL (≈ 0.0623 µM)
[1]; M. tuberculosis No. 43
  MIC: 0.78 µg/mL (≈ 1.94 µM)
[1]; M. tuberculosis No. 68
  MIC: 0.10 µg/mL (≈ 0.249 µM)
M. avium; M. avium N-357
  MIC: 0.39 µg/mL (≈ 0.972 µM)
M. avium; M. avium N-444
  MIC: 1.56 µg/mL (≈ 3.89 µM)
M. avium; M. avium N-458
  MIC: 0.78 µg/mL (≈ 1.94 µM)
M. intracellulare; M. intracellulare N-294
  MIC: 1.56 µg/mL (≈ 3.89 µM)
M. intracellulare; M. intracellulare N-313
  MIC: 0.78 µg/mL (≈ 1.94 µM)
M. intracellulare; M. intracellulare N-338
  MIC: 1.56 µg/mL (≈ 3.89 µM)
M. intracellulare; M. intracellulare N-345
  MIC: 3.13 µg/mL (≈ 7.8 µM)

## COc1c(N2CC3CCCNC3C2)c(F)cc2c(=O)c(C(=O)O)cn([C@@H]3C[C@@H]3F)c12 (stereo partly drawn) [Compd. 6]
[1]; M. tuberculosis H37Rv
  MIC: 0.10 µg/mL (≈ 0.238 µM)
[1]; M. tuberculosis Kurono
  MIC: 0.05 µg/mL (≈ 0.119 µM)
[1]; M. tuberculosis No. 40
  MIC: 0.10 µg/mL (≈ 0.238 µM)
[1]; M. tuberculosis No. 41
  MIC: 0.013 µg/mL (≈ 0.031 µM)
[1]; M. tuberculosis No. 43
  MIC: 0.78 µg/mL (≈ 1.86 µM)
[1]; M. tuberculosis No. 68
  MIC: 0.05 µg/mL (≈ 0.119 µM)
M. avium; M. avium N-357
  MIC: 0.39 µg/mL (≈ 0.93 µM)
M. avium; M. avium N-444
  MIC: 1.56 µg/mL (≈ 3.72 µM)
M. avium; M. avium N-458
  MIC: 0.78 µg/mL (≈ 1.86 µM)
M. avium; M. avium N-472
  MIC: 3.13 µg/mL (≈ 7.46 µM)
M. intracellulare; M. intracellulare N-294
  MIC: 0.78 µg/mL (≈ 1.86 µM)
M. intracellulare; M. intracellulare N-313
  MIC: 0.78 µg/mL (≈ 1.86 µM)
M. intracellulare; M. intracellulare N-338
  MIC: 1.56 µg/mL (≈ 3.72 µM)
M. intracellulare; M. intracellulare N-345
  MIC: 3.13 µg/mL (≈ 7.46 µM)

## COc1c(N2CC(N)C3(CC3)C2)c(F)cc2c(=O)c(C(=O)O)cn(C3CC3)c12 (stereo not drawn) [Compd. 7]
M. avium; M. avium N-357
  MIC: 0.39 µg/mL (≈ 1.01 µM)
M. avium; M. avium N-444
  MIC: 1.56 µg/mL (≈ 4.03 µM)
M. avium; M. avium N-458
  MIC: 0.78 µg/mL (≈ 2.01 µM)
M. avium; M. avium N-472
  MIC: 6.25 µg/mL (≈ 16.1 µM)
M. intracellulare; M. intracellulare N-294
  MIC: 0.78 µg/mL (≈ 2.01 µM)
M. intracellulare; M. intracellulare N-313
  MIC: 0.2 µg/mL (≈ 0.516 µM)
M. intracellulare; M. intracellulare N-338
  MIC: 0.39 µg/mL (≈ 1.01 µM)
M. intracellulare; M. intracellulare N-345
  MIC: 1.56 µg/mL (≈ 4.03 µM)

## COc1c(N2CC(N)C3(CC3)C2)c(F)cc2c(=O)c(C(=O)O)cn([C@@H]3C[C@@H]3F)c12 (stereo partly drawn) [Compd. 8]
[1]; M. tuberculosis H37Rv
  MIC: 0.10 µg/mL (≈ 0.247 µM)
[1]; M. tuberculosis Kurono
  MIC: 0.05 µg/mL (≈ 0.123 µM)
[1]; M. tuberculosis No. 40
  MIC: 0.10 µg/mL (≈ 0.247 µM)
[1]; M. tuberculosis No. 41
  MIC: 0.006 µg/mL (≈ 0.0148 µM)
[1]; M. tuberculosis No. 43
  MIC: 0.78 µg/mL (≈ 1.92 µM)
[1]; M. tuberculosis No. 68
  MIC: 0.20 µg/mL (≈ 0.493 µM)
M. avium; M. avium N-357
  MIC: 1.56 µg/mL (≈ 3.85 µM)
M. avium; M. avium N-444
  MIC: 1.56 µg/mL (≈ 3.85 µM)
M. avium; M. avium N-458
  MIC: 0.78 µg/mL (≈ 1.92 µM)
M. avium; M. avium N-472
  MIC: 3.13 µg/mL (≈ 7.72 µM)
M. intracellulare; M. intracellulare N-294
  MIC: 1.56 µg/mL (≈ 3.85 µM)
M. intracellulare; M. intracellulare N-313
  MIC: 0.39 µg/mL (≈ 0.962 µM)
M. intracellulare; M. intracellulare N-338
  MIC: 1.56 µg/mL (≈ 3.85 µM)
M. intracellulare; M. intracellulare N-345
  MIC: 1.56 µg/mL (≈ 3.85 µM)
